{"source": "patent US11548871B2", "about": "“Triazole carbamate pyridyl sulfonamides as LPA receptor antagonists and uses thereof” (Gilead Sciences, Inc., priority 2019, dated 2023)", "data": [{"molecular_target": "human LPAR1 (Homo sapiens, UniProt Q92633)", "sequence (Q92633 whole entry)": "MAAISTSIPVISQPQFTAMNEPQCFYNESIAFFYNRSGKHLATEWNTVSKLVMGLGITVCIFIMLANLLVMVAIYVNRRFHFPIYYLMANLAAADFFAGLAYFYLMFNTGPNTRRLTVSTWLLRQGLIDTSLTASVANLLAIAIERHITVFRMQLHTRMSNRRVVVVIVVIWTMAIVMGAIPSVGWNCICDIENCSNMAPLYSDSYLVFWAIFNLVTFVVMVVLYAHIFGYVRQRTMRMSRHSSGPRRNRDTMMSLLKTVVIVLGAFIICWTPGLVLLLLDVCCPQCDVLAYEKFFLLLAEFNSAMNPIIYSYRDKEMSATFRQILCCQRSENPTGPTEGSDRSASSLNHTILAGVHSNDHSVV", "assay": "LPAR1 intracellular calcium mobilization assay (antagonist mode)", "units": {"EC50": "nM"}, "method": "In vitro LPAR1 activity was measured in an intracellular calcium mobilization assay.\nPrior to testing cell media were aspirated from the cells and replaced with 20 μL Calcium Dye Loading Buffer (DiscoverX Calcium NoWash^PLUS Assay Kit cat #90-0091) and 2.5 mM Probenecid (Sigma Aldrich cat #P8761, prepared fresh) in HBSS/20 mM Hepes for 60 min at 37° C.\nFor agonist dose curves, cells were removed from the incubator after dye loading and 10 μL HBSS/20 mM Hepes including 3× vehicle was added. Cells were incubated for 30 min at room temperature in the dark to equilibrate plate temperatures. An intermediate LPA dilution series was prepared in assay buffer to generate 4× stock. Calcium mobilization was monitored on a FLIPR Tetra (MDS, San Jose, Calif.) for 2 min and 10 μL 4×LPA in HBSS/20 mM Hepes was added to the cells 5 s into the assay.\nAn intermediate antagonist dilution series was prepared as 3× samples in assay buffer. After dye loading, cells were removed from the incubator and 10 μL 3× antagonist was added. Cells were incubated for 30 min at room temperature in the dark to equilibrate plate temperatures. The final vehicle (DMSO) concentration was 1%. Compound antagonist activities was measured on a FLIPR Tetra. Calcium mobilization was monitored for 2 min and 10 μL EC80 agonist in HBSS/20 mM Hepes was added to the cells 5 s into the assay. Compound activity was analyzed using CBIS data analysis suite (ChemInnovation Software, San Diego, Calif.).", "values": [{"molecule": "COC1CN(S(=O)(=O)Nc2ccc(-c3nnn(C)c3NC(=O)O[C@H](C)c3cccc(F)c3)nc2C)C1", "note": "[Compound 108, (R)-1-(3-fluoro-phenyl)ethyl (4-(5-((3-methoxy-azetidine)-1-sulfonamido)-6-methylpyridin-2-yl)-1-methyl-1H-1,2,3-triazol-5-yl)carbamate]", "EC50": 10000}, {"molecule": "Cc1nc(-c2nnn(C)c2NC(=O)OC(C)c2ccncc2Cl)ccc1NS(C)(=O)=O", "note": "(centres unmarked) [Compound 75, 1-(3-chloropyridin-4-yl)ethyl (1-methyl-4-(6-methyl-5-(methylsulfonamido)pyridin-2-yl)-1H-1,2,3-triazol-5-yl)carbamate]", "EC50": 155}, {"molecule": "Cc1nc(-c2nnn(C)c2NC(=O)OC(C)c2cccnc2C(F)F)ccc1NS(C)(=O)=O", "note": "(centres unmarked) [Compound 124, 1-(2-(difluoromethyl)pyridin-3-yl)ethyl (1-methyl-4-(6-methyl-5-(methylsulfonamido)pyridin-2-yl)-1H-1,2,3-triazol-5-yl)carbamate]", "EC50": 1080}, {"molecule": "C[C@@H](OC(=O)Nc1c(-c2ccc(NS(=O)(=O)C3CNC3)cn2)nnn1C)c1cccnc1Cl", "note": "[Compound 161, (R)-1-(2-chloropyridin-3-yl)ethyl (4-(5-(azetidine-3-sulfonamido)pyridin-2-yl)-1-methyl-1H-1,2,3-triazol-5-yl)carbamate]", "EC50": 5250}, {"molecule": "Cc1nc(-c2nnn(C)c2NC(=O)O[C@H](C)c2cccnc2Cl)ccc1NS(C)(=O)=O", "note": "[Compound 68, (R)-1-(2-chloropyridin-3-yl)ethyl (1-methyl-4-(6-methyl-5-(methylsulfonamido)pyridin-2-yl)-1H-1,2,3-triazol-5-yl)carbamate]", "EC50": 218}, {"molecule": "Cc1nc(-c2nnn(C)c2NC(=O)O[C@H](C)c2nc(Cl)sc2Cl)ccc1NS(C)(=O)=O", "note": "[Compound 139, (R)-1-(2,5-dichlorothiazol-4-yl)ethyl (1-methyl-4-(6-methyl-5-(methylsulfonamido)pyridin-2-yl)-1H-1,2,3-triazol-5-yl)carbamate]", "EC50": 163}, {"molecule": "Cc1nc(-c2nnn(C)c2NC(=O)OC(C)c2cccnc2C(F)(F)F)ccc1NS(C)(=O)=O", "note": "(centres unmarked) [Compound 85, 1-(2-(trifluoromethyl)pyridin-3-yl)ethyl (1-methyl-4-(6-methyl-5-(methylsulfonamido)pyridin-2-yl)-1H-1,2,3-triazol-5-yl)carbamate]", "EC50": 2470}, {"molecule": "CCCCCC[C@H](OC(=O)Nc1c(-c2ccc(NS(C)(=O)=O)c(C)n2)nnn1C)C(F)(F)F", "note": "[Compound 51, (S)-1,1,1-trifluorooctan-2-yl (1-methyl-4-(6-methyl-5-(methylsulfonamido)pyridin-2-yl)-1H-1,2,3-triazol-5-yl)carbamate]", "EC50": 1250}, {"molecule": "Cc1nc(-c2nnn(C)c2NC(=O)O[C@H](C)c2cccc(Cl)c2F)ccc1NS(C)(=O)=O", "note": "[Compound 24, (R)-1-(3-chloro-2-fluorophenyl)ethyl (1-methyl-4-(6-methyl-5-(methylsulfonamido)pyridin-2-yl)-1H-1,2,3-triazol-5-yl)carbamate]", "EC50": 276}, {"molecule": "COCc1ccccc1[C@@H](C)OC(=O)Nc1c(-c2ccc(NS(C)(=O)=O)c(C)n2)nnn1C", "note": "[Compound 35, (R)-1-(2-(methoxymethyl)phenyl)ethyl (1-methyl-4-(6-methyl-5-(methylsulfonamido)pyridin-2-yl)-1H-1,2,3-triazol-5-yl)carbamate]", "EC50": 327}, {"molecule": "Cc1nc(-c2nnn(C)c2NC(=O)O[C@H](C)c2ccccc2Cl)ccc1NS(C)(=O)=O", "note": "[Compound 11, (R)-1-(2-chlorophenyl)ethyl (1-methyl-4-(6-methyl-5-(methylsulfonamido)pyridin-2-yl)-1H-1,2,3-triazol-5-yl)carbamate]", "EC50": 23.8}, {"molecule": "Cn1nnc(-c2ccc(NS(=O)(=O)CC#N)cn2)c1NC(=O)O[C@@H](c1ccccc1)C(F)F", "note": "[Compound 13, (S)-2,2-difluoro-1-phenylethyl(4-(5-((cyanomethyl)sulfonamido)pyridin-2-yl)-1-methyl-1H-1,2,3-triazol-5-yl)carbamate]", "EC50": 71.4}, {"molecule": "Cc1nc(-c2nnn(C)c2NC(=O)O[C@H](C)c2cccc(F)c2)ccc1NS(=O)(=O)C1CCC1", "note": "[Compound 104, (R)-1-(3-fluoro-phenyl)ethyl(4-(5-(cyclobutane-sulfonamido)-6-methylpyridin-2-yl)-1-methyl-1H-1,2,3-triazol-5-yl)carbamate]", "EC50": 434}, {"molecule": "Cn1nnc(-c2ccc(NS(C)(=O)=O)cn2)c1NC(=O)OCc1cccc(Cl)c1", "note": "[Compound 20, 3-chlorobenzyl (1-methyl-4-(5-(methylsulfonamido)pyridin-2-yl)-1H-1,2,3-triazol-5-yl)carbamate]", "EC50": 117}, {"molecule": "Cc1nc(-c2nnn(C)c2NC(=O)O[C@H](C)c2cccnc2C)ccc1NS(C)(=O)=O", "note": "[Compound 141, (R)-1-(2-methylpyridin-3-yl)ethyl (1-methyl-4-(6-methyl-5-(methylsulfonamido)pyridin-2-yl)-1H-1,2,3-triazol-5-yl)carbamate]", "EC50": 723}, {"molecule": "Cc1nc(-c2nnn(C)c2NC(=O)O[C@H](C)c2ccc(F)nc2C)ccc1NS(C)(=O)=O", "note": "[Compound 143, (R)-1-(6-fluoro-2-methylpyridin-3-yl)ethyl (1-methyl-4-(6-methyl-5-(methylsulfonamido)pyridin-2-yl)-1H-1,2,3-triazol-5-yl)carbamate]", "EC50": 330}, {"molecule": "COc1nc(-c2nnn(C)c2NC(=O)O[C@H](C)c2ccccc2)ccc1NS(C)(=O)=O", "note": "[Compound 1, (R)-1-phenylethyl (4-(6-methoxy-5-(methylsulfonamido)pyridin-2-yl)-1-methyl-1H-1,2,3-triazol-5-yl)carbamate]", "EC50": 323}, {"molecule": "CCS(=O)(=O)Nc1ccc(-c2nnn(C)c2NC(=O)O[C@H](C)c2cccc(F)c2)nc1C", "note": "[Compound 101, (R)-1-(3-fluorophenyl) ethyl(4-(5-(ethyl-sulfonamido)-6-methyl-pyridin-2-yl)-1-methyl-1H-1,2,3-triazol-5-yl)carbamate]", "EC50": 261}, {"molecule": "CCCCCCOC(=O)Nc1c(-c2ccc(NS(C)(=O)=O)c(C)n2)nnn1C", "note": "[Compound 31, hexyl (1-methyl-4-(6-methyl-5-(methylsulfonamido)pyridin-2-yl)-1H-1,2,3-triazol-5-yl)carbamate]", "EC50": 1220}, {"molecule": "Cc1nc(-c2nnn(C)c2NC(=O)O[C@H](C)c2cc(F)ncc2Cl)ccc1NS(C)(=O)=O", "note": "[Compound 123, (R)-1-(5-chloro-2-fluoropyridin-4-yl)ethyl (1-methyl-4-(6-methyl-5-(methylsulfonamido)pyridin-2-yl)-1H-1,2,3-triazol-5-yl)carbamate]", "EC50": 86.1}, {"molecule": "Cc1nc(-c2nnn(C)c2NC(=O)OCCCC(C)C)ccc1NS(C)(=O)=O", "note": "[Compound 29, 4-methylpentyl (1-methyl-4-(6-methyl-5-(methylsulfonamido)pyridin-2-yl)-1H-1,2,3-triazol-5-yl)carbamate]", "EC50": 325}, {"molecule": "C=Cc1ncccc1[C@@H](C)OC(=O)Nc1c(-c2ccc(NS(C)(=O)=O)c(C)n2)nnn1C", "note": "[Compound 127, (R)-1-(2-vinylpyridin-3-yl)ethyl (1-methyl-4-(6-methyl-5-(methylsulfonamido)pyridin-2-yl)-1H-1,2,3-triazol-5-yl)carbamate]", "EC50": 1420}, {"molecule": "C[C@@H](OC(=O)Nc1c(-c2ccc(NS(C)(=O)=O)c(C3CC3)n2)nnn1C)c1cccnc1Cl", "note": "[Compound 149, (R)-1-(2-chloropyridin-3-yl)ethyl (4-(6-cyclopropyl-5-(methylsulfonamido)pyridin-2-yl)-1-methyl-1H-1,2,3-triazol-5-yl)carbamate]", "EC50": 304}, {"molecule": "Cc1nc(-c2nnn(C)c2NC(=O)OC(C)c2cncc(Cl)c2)ccc1NS(C)(=O)=O", "note": "(centres unmarked) [Compound 83, 1-(5-chloropyridin-3-yl)ethyl (1-methyl-4-(6-methyl-5-(methylsulfonamido)pyridin-2-yl)-1H-1,2,3-triazol-5-yl)carbamate]", "EC50": 623}, {"molecule": "Cc1nc(-c2nnn(C)c2NC(=O)O[C@H](C)CC(C)C)ccc1NS(C)(=O)=O", "note": "[Compound 72, (R)-4-methylpentan-2-yl (1-methyl-4-(6-methyl-5-(methylsulfonamido)pyridin-2-yl)-1H-1,2,3-triazol-5-yl)carbamate]", "EC50": 115}, {"molecule": "Cc1nc(-c2nnn(C)c2NC(=O)N[C@@H](c2ccccc2)C(F)(F)F)ccc1NS(C)(=O)=O", "note": "[Compound 66, (S)-N-(2-methyl-6-(1-methyl-5-(3-(2,2,2-trifluoro-1-phenylethyl)ureido)-1H-1,2,3-triazol-4-yl)pyridin-3-yl)methanesulfonamide]", "EC50": 540}, {"molecule": "Cn1nnc(-c2ccc(NS(C)(=O)=O)cn2)c1NC(=O)O[C@H](CF)c1cccc(F)c1", "note": "[Compound 22, (S)-2-fluoro-1-(3-fluorophenyl)ethyl (1-methyl-4-(5-(methylsulfonamido)pyridin-2-yl)-1H-1,2,3-triazol-5-yl)carbamate]", "EC50": 8.7}, {"molecule": "Cc1ncc(F)cc1[C@@H](C)OC(=O)Nc1c(-c2ccc(NS(C)(=O)=O)cn2)nnn1C", "note": "[Compound 112, (R)-1-(5-fluoro-2-methylpyridin-3-yl)ethyl (1-methyl-4-(5-(methylsulfonamido)pyridin-2-yl)-1H-1,2,3-triazol-5-yl)carbamate]", "EC50": 106}, {"molecule": "Cc1nc(-c2nnn(C)c2NC(=O)O[C@H](C)c2cc(Cl)cnc2Cl)ccc1NS(C)(=O)=O", "note": "[Compound 142, (R)-1-(2,5-dichloropyridin-3-yl)ethyl (1-methyl-4-(6-methyl-5-(methylsulfonamido)pyridin-2-yl)-1H-1,2,3-triazol-5-yl)carbamate]", "EC50": 142}, {"molecule": "Cc1nc(-c2nnn(C)c2NC(=O)O[C@H](C)c2cccc(F)c2F)ccc1NS(C)(=O)=O", "note": "[Compound 87, (R)-1-(2,3-difluorophenyl)ethyl(1-methyl-4-(6-methyl-5-(methylsulfonamido)pyridin-2-yl)-1H-1,2,3-triazol-5-yl)carbamate]", "EC50": 312}, {"molecule": "Cc1nc(-c2nnn(C)c2NC(=O)O[C@H](CF)c2cccc(Cl)c2)ccc1NS(C)(=O)=O", "note": "[Compound 25, (S)-1-(3-chlorophenyl)-2-fluoroethyl (1-methyl-4-(6-methyl-5-(methylsulfonamido)pyridin-2-yl)-1H-1,2,3-triazol-5-yl)carbamate]", "EC50": 18.7}, {"molecule": "C[C@@H](OC(=O)Nc1c(-c2ncc(NS(C)(=O)=O)cc2F)nnn1C)c1cccc(F)c1", "note": "[Compound 88, (R)-1-(3-fluorophenyl)ethyl(4-(3-fluoro-5-(methylsulfonamido)pyridin-2-yl)-1-methyl-1H-1,2,3-triazol-5-yl)carbamate]", "EC50": 256}]}]}
